Data: patent US6140354A, “N-substituted aminotetralins as ligands for the neuropeptide Y Y5 receptor useful in the treatment of obesity and other disorders” (Ortho-McNeil Pharmaceutical, Inc., priority 1999, dated 2000)

Tests used:
[1] = Rodent Feeding Model: Measurement of Food Intake in Food-Deprived Rats; format: in vivo, Male Long-Evans rats; details: 30 mg/kg i.p., N = 8; for Food Consumption (% chg.) 0-2 hrs / Food Consumption (% chg.) 0-6 hrs / Food Consumption (% chg.) 2-6 hrs: vs vehicle, negative = reduction
Experimental: Male Long-Evans rats (180-200 grams) are housed individually and are maintained on a once-a-day feeding schedule (i.e. 10 a.m. until 4 p.m.) for five days following quarantine to allow the animals to acclimate to feeding on powdered chow (#5002 PMI Certified Rodent Meal) during the allotted time. The chow is made available in an open jar, anchored in the cage by a wire, with a metal follower covering the food to minimize spillage. Water is available ad-libitum.
Animals are fasted for 18 hours prior to testing. At the end of the fasting period, animals are administered either compounds of the invention or vehicle. Vehicle and test compounds are administered either orally (5 mL/kg) 60 minutes prior to the experiment, or 30 minutes prior when given subcutaneously (1 mL/kg) or intraperitoneally (1 mL/kg). Compounds of the invention are administered orally as a suspension in aqueous 0.5% methylcellulose-0.4% Tween 80, or intraperitoneally as a solution or suspension in PEG 200; compound concentrations typically range from 1 mg/kg to 100 mg/kg, preferably from 10-30 mg/kg. Food intake is measured at 2, 4, and 6 hours after administration by weighing the special jar containing the food before the experiment and at the specified times. Upon completion of the experiment, all animals are given a one-week washout period before retesting.
Percent reduction of food consumption is calculated subtracting the grams of food consumed by the treated group from the grams of food consumed by the control group divided by the grams of food consumed by the control group, multiplied by 100. [formula] A negative value indicates a reduction in food consumption and a positive value indicates an increase in food consumption.

[2] = biological target: T1, human neuropeptide Y5 receptor (Homo sapiens, UniProt Q15761); test: NPY5 HTS Centrifugation Assay: competition with 125I-PYY for binding to NPY5-transfected HEK293 cell membranes; details: 80 pM 125I-PYY, 1 hr room temperature, read-out: % Inh @ 3 uM (% Inhibition of ^125 I-PYY Binding)
T1 construct: expressed in transfected cells
T1 sequence (Q15761 1-445): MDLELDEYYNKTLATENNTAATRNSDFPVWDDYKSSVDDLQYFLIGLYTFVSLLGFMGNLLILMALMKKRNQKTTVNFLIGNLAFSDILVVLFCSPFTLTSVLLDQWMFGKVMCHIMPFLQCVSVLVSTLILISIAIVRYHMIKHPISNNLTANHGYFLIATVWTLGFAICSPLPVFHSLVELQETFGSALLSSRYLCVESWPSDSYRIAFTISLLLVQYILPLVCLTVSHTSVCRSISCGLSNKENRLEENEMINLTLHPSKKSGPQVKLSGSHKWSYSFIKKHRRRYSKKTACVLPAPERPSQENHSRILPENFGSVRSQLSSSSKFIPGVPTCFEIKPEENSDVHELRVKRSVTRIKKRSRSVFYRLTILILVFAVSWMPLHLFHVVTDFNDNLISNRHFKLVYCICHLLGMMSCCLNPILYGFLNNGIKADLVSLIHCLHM
Experimental: The compounds described in this invention were evaluated for binding to the human neuropeptide Y5 receptor.
The human NPY5 receptor cDNA (Genbank Accession number U66275) was inserted into the vector pClneo (Invitrogen) and transfected into human embryonic kidney cells (HEK-293) via Calcium phosphate method (Cullen 1987). Stably transfected cells were selected with G-418 (600 ug/mL). Stably transfected cells served as the source for the membranes for the NPY5 receptor binding assay.
NPY5-transfected HEK293 cells were grown to confluence in 150 cm^2 culture dishes. Cells were washed once with phosphate-buffered saline (Gibco Cat#14040-133). Cells were then incubated in phosphate-buffered saline without Calcium and without Magnesium, supplemented with 2 mM EDTA. Cells were incubated for 10 minutes at room temperature and the cells were collected by repetitive pipeting. Cells were formed into pellets and then frozen at -80 until needed. Frozen pellets were homogenized with a polytron at full speed for 12 seconds in a homogenization buffer (20 mM Tris HCl, 5 mM EDTA, pH 7.4). Homogenates were centrifuged for 5 minutes at 4C at 200 g. Supernatants were transferred to corex tubes and centrifuged for 25 minutes at 28,000 g. Pellets were re-suspended in Binding (20 mM HEPES, 10 mM NaCl, 0.22 mM KH2 PO4, 1.3 mM CaCl2, 0.8 mM MgSO4, pH 7.4). Membranes were kept on ice until use.
A competition binding assay, known to those skilled in the art, was used in which aminotetralins (I) compete with ^125 I-PYY for binding to cell membranes. In simple terms, the less ^125 I-PYY bound to the membranes implies that a compound is a good inhibitor (competitor). Bound ^125 I-PYY is determined by centrifugation of membranes, aspirating supernatant, washing away residual ^125 I-PYY and subsequently counting the bound sample in a g-counter.
Compounds to be tested were prepared as 10× stocks in binding buffer and added first to assay tubes (RIA vials, Sarstedt). Twenty (20) μL of each 10× compound stock is pipeted into vials and 80 μL of ^125 I-PYY (NEN catalog number NEX240), which has been diluted to a concentration of 200 pM in 0.25% BSA in binding buffer, is added to the compound tubes (final concentration of ^125 I-PYY is 80 pM). To each tube is added 100 μL of membranes and the mixture is agitated by pipeting 2 times. Samples are incubated for 1 hr at room temperature. Aluminum cast plates (Sarstedt) containing the vials are then centrifuged 10 minutes at 3200 rpm in a Sorvall RT6000. Supernatant is then aspirated. To each vial 400 μL PBS is added and this is then aspirated again. Vials are then put in carrier polypropylene 12×75 tube and counted in gamma counter (Packard). Non-specific binding is determined in the presence of 300 nM NPY. Percent inhibition of ^125 I-PYY binding is calculated by subtracting non-specific binding from the test samples (compound (I)), taking these counts and dividing by total binding, and multiplying by 100. Inhibitory concentration values (IC50) of compounds that show appreciable inhibition of ^125 I-PYY binding are calculated by obtaining percent inhibition of ^125 I-PYY binding values at different concentrations of the test compound, and using a graphing program such as GraphPad Prism (San Diego, Calif.) to calculate the concentration of test compound that inhibits fifty-percent of ^125 I-PYY binding (Table 4). These operations are known to those skilled in the art.

[3] = NPY fragment; cited from earlier work
[4] = tested on: classic Y1 receptor; details: cited from earlier work

Compound: COc1ccc2c(c1)CCC(NC[C@H]1CC[C@H](CNS(=O)(=O)c3ccccc3F)CC1)C2Cc1cccnc1 (relative stereo) [Compound 43]
- Food Consumption (grams) 0-2 hrs [1]: 6.63 g
- Food Consumption (% chg.) 0-2 hrs [1]: -17.1%
- Food Consumption (grams) 0-6 hrs [1]: 15.25 g
- Food Consumption (% chg.) 0-6 hrs [1]: -17.6%
- Food Consumption (grams) 2-6 hrs [1]: 8.63 g
- Food Consumption (% chg.) 2-6 hrs [1]: -17.8%

Compound: O=S(=O)(NC[C@H]1CC[C@H](CN[C@H]2CCc3cc(O)ccc3[C@H]2Cc2cccnc2)CC1)c1ccccc1F (relative stereo) [Compound 44, rac-[1α,2α(trans)]-N-[[[[[1,2,3,4-tetrahydro-6-hydroxy-1-(3-pyridinylmethyl)-2-naphthalenyl]amino]methyl]-4-cyclohexyl]methyl]2-fluorobenzenesulfonamide]
- inhibition at 3 µM [2]: 101%
- Food Consumption (grams) 0-2 hrs [1]: 4.75 g
- Food Consumption (% chg.) 0-2 hrs [1]: -40.6%
- Food Consumption (grams) 0-6 hrs [1]: 14.00 g
- Food Consumption (% chg.) 0-6 hrs [1]: -24.3%
- Food Consumption (grams) 2-6 hrs [1]: 9.25 g
- Food Consumption (% chg.) 2-6 hrs [1]: -11.9%

Compound: COc1ccc2c(c1)CC[C@H](NC[C@H]1CC[C@H](CNS(=O)(=O)c3ccc(OC)c(OC)c3)CC1)[C@@H]2Cc1ccccc1 (relative stereo) [Compound 53]
- Food Consumption (grams) 0-2 hrs [1]: 5.75 g
- Food Consumption (% chg.) 0-2 hrs [1]: -33.3%
- Food Consumption (grams) 0-6 hrs [1]: 11.88 g
- Food Consumption (% chg.) 0-6 hrs [1]: -40.2%
- Food Consumption (grams) 2-6 hrs [1]: 6.13 g
- Food Consumption (% chg.) 2-6 hrs [1]: -45.6%

Compound: O=S(=O)(NC[C@H]1CC[C@H](CNC2CCc3cc(F)ccc3C2Cc2cccnc2)CC1)c1ccccc1F (relative stereo) [Compound 111]
- Food Consumption (grams) 0-2 hrs [1]: 5.13 g
- Food Consumption (% chg.) 0-2 hrs [1]: -35.9%
- Food Consumption (grams) 0-6 hrs [1]: 12.63 g
- Food Consumption (% chg.) 0-6 hrs [1]: -31.7%
- Food Consumption (grams) 2-6 hrs [1]: 7.50 g
- Food Consumption (% chg.) 2-6 hrs [1]: -28.6%

Compound: COc1ccc2c(c1)CCC(NC[C@H]1CC[C@H](CNS(=O)(=O)c3ccccc3CN)CC1)C2Cc1ccccc1 (stereo partly shown) [Compound 67]
- inhibition at 3 µM [2]: 91%

Compound: COc1ccc2c(c1)CCC(NC[C@H]1CC[C@H](CNS(=O)(=O)c3cccc(Br)c3)CC1)C2Cc1ccccc1 (stereo partly shown) [Compound 69]
- inhibition at 3 µM [2]: 93%

Compound: COc1ccc2c(c1)CCC(NC[C@H]1CC[C@H](CNS(=O)(=O)c3ccc(Br)cc3)CC1)C2Cc1ccccc1 (stereo partly shown) [Compound 70]
- inhibition at 3 µM [2]: 95%

Compound: O=S(=O)(NC[C@H]1CC[C@H](CNC2CCc3cc(O)ccc3C2Cc2ccccc2)CC1)c1ccccc1 (stereo partly shown) [Compound 71]
- inhibition at 3 µM [2]: 102%

Compound: O=S(=O)(NC[C@H]1CC[C@H](CNC2CCc3cc(F)ccc3C2Cc2ccccc2)CC1)c1ccc(Cl)cc1Cl (stereo partly shown) [Compound 76]
- inhibition at 3 µM [2]: 99%

Compound: O=S(=O)(NC[C@H]1CC[C@H](CNC2CCc3cc(F)ccc3C2Cc2ccccc2)CC1)c1c(Cl)cccc1Cl (stereo partly shown) [Compound 77]
- inhibition at 3 µM [2]: 102%

Compound: O=S(=O)(NC[C@H]1CC[C@H](CNC2CCc3cc(F)ccc3C2Cc2ccccc2)CC1)c1ccc(Cl)c(Cl)c1 (stereo partly shown) [Compound 78]
- inhibition at 3 µM [2]: 92%

Compound: COc1ccc2c(c1)C(Cc1ccccc1)C(NC[C@H]1CC[C@H](CNS(=O)(=O)c3ccccc3)CC1)CC2 (stereo partly shown) [Compound 79]
- inhibition at 3 µM [2]: 93%

Compound: COc1cccc(CC2c3ccc(OC)cc3CCC2NC[C@H]2CC[C@H](CNS(=O)(=O)c3ccc4ccccc4c3)CC2)c1 (stereo partly shown) [Compound 84]
- inhibition at 3 µM [2]: 82%

Compound: COc1ccc(CC2c3ccc(OC)cc3CCC2NC[C@H]2CC[C@H](CNS(=O)(=O)c3ccccc3)CC2)cc1 (stereo partly shown) [Compound 86]
- inhibition at 3 µM [2]: 25%

Compound: COc1ccc2c(c1)CCC(NC[C@H]1CC[C@H](CNS(=O)(=O)c3ccccc3)CC1)C2Cc1ccc([N+](=O)[O-])cc1 (stereo partly shown) [Compound 87]
- inhibition at 3 µM [2]: 84%

Compound: COc1ccc2c(c1)CCC(NC[C@H]1CC[C@H](CNS(=O)(=O)c3ccccc3[N+](=O)[O-])CC1)C2Cc1ccccc1OC (stereo partly shown) [Compound 91]
- inhibition at 3 µM [2]: 92%

Compound: COc1ccc2c(c1)CCC(NC[C@H]1CC[C@H](CNS(=O)(=O)c3ccc4ccccc4c3)CC1)C2Cc1cccc(Cl)c1 (stereo partly shown) [Compound 93]
- inhibition at 3 µM [2]: 60%

Compound: COc1ccc2c(c1)CCC(NC[C@H]1CC[C@H](CNS(=O)(=O)c3ccc4ccccc4c3)CC1)C2Cc1cccc(C(F)(F)F)c1 (stereo partly shown) [Compound 94]
- inhibition at 3 µM [2]: 45%

Compound: COc1ccc2c(c1)CCC(NC[C@H]1CC[C@H](CNS(=O)(=O)c3ccccc3)CC1)C2Cc1ccccc1C(F)(F)F (stereo partly shown) [Compound 98]
- inhibition at 3 µM [2]: 30%

Compound: COc1ccc2c(c1)CCC(NC[C@H]1CC[C@H](CNS(=O)(=O)c3ccccc3)CC1)C2Cc1cccc(C(F)(F)F)c1 (stereo partly shown) [Compound 99]
- inhibition at 3 µM [2]: 99%

Compound: COc1ccc2c(c1)CCC(NC[C@H]1CC[C@H](CNS(=O)(=O)c3ccccc3)CC1)C2Cc1ccc(C(F)(F)F)cc1 (stereo partly shown) [Compound 100]
- inhibition at 3 µM [2]: 93%

Compound: O=S(=O)(NC[C@H]1CC[C@H](CNC2CCc3ccc(Cl)cc3C2Cc2ccccc2)CC1)c1ccccc1 (stereo partly shown) [Compound 104]
- inhibition at 3 µM [2]: 97%

Compound: O=S(=O)(NC1CCC(CNC2CCc3ccccc3C2Cc2cccnc2)CC1)c1ccccc1 (stereo not shown) [Compound 112]
- inhibition at 3 µM [2]: 95%

Compound: NPY2-36: NPY fragment
- feeding [3]: potent inducer of feeding
- binding at the classic Y1 receptor [4]: poor binding
